Data on two compounds can be found in paper PMC6105804, “In Vitro and In Vivo Evaluation of APX001A/APX001 and Other Gwt1 Inhibitors against Cryptococcus” (Antimicrobial Agents and Chemotherapy, 2018).

Data set [1] concerns A. fumigatus MYA3626. In words: Broth microdilution susceptibility testing for molds (CLSI M38-A2). The class given is cell-based. To be noted: Aspergillus fumigatus, MYA3626; read-out: MIC or MEC for A. fumigatus MYA3626. From the text:
(§1) C. neoformans strains H99, DUMC 118.00, and DUMC 158.03 and C. gattii strains R272 and RSA-MW-3515 were obtained from Duke University. C. albicans 90028, A. fumigatus MYA3626, C. neoformans 14116, C. neoformans 76484, and the pathogenic Cryptococcus reference strains panel (ATCC MP-11) were obtained from the American Type Culture Collection (ATCC; Manassas, VA, USA). The ATCC MP-11 panel consists of strains representing eight molecular types and three subtypes of C. neoformans and C. gattii.
(§2) To establish the antimicrobial activity of the APX001A analogs, broth microdilution susceptibility testing was performed according to Clinical and Laboratory Standards Institute (CLSI) guidelines M27-A3 ([47]) for yeasts and M38-A2 for molds ([48]). APX001A and analogs were first diluted in DMSO to obtain intermediate dilutions. These were further diluted in microtiter plates to obtain a final concentration of 2 to 0.002 μg/ml. One microliter of DMSO was added to the no-drug control wells. The solutions were mixed on a plate shaker for 10 min, and the plates were incubated at 35°C for 40 to 48 h (C. albicans, A. fumigatus) and 72 h (C. neoformans). The minimum concentration that led to a 50% reduction in fungal growth compared to that for the control (determined with the aid of a reading mirror) was determined as the MIC for C. albicans and C. neoformans. The minimum concentration that led to the shortening of hyphae compared to the hyphal growth in DMSO control wells was determined as the minimum effective concentration (MEC) for A. fumigatus (as read for the echinocandins). The use of the MIC and MEC endpoints for APX001A (formerly E1210) against yeasts and molds, respectively, has been described previously ([19][–][21]). For the cryptococcal synergy studies, APX001A and APX2020 MIC values were read at 50% inhibition.

Data set [2] can be described thus: Single-dose mouse pharmacokinetics of prodrugs with or without ABT. The class given is in vivo. To be noted: for AUC: male, CD-1, mouse, plasma, 26 mg/kg. As to the method: The area under the curve (AUC) was calculated from time zero to the time of the last measurable concentration. The active metabolite concentrations in plasma (APX001A, APX2039, APX2020, and APX2041) were determined by liquid chromatography-tandem mass spectrometry. PK parameters were determined using Phoenix WinNonlin (v7.0) software and a noncompartmental model.

The subject of data set [3] is C. neoformans H99. In words: Microtiter checkerboard synergy with FLC. The class given is cell-based, Cryptococcus neoformans. The note with it: in combination with FLC, MIC read at 50% inhibition, synergy FICI < 0.5. The protocol: An important consideration for developing a new treatment for CM is the potential for inclusion in combination therapy. We evaluated the synergy of APX001A and APX2020 in combination with FLC using standard microtiter dilution techniques ([33]). […] Importantly, no antagonism was observed.
as §2, with “The use of the MIC and MEC endpoints for APX001A (formerly E1210) against yeasts and molds, respectively, has been described previously ([19][–][21]). For the cryptococcal synergy studies, APX001A and APX2020 MIC values were read at 50% inhibition.” left out

Data set [4] deals with C. gattii. In words: Broth microdilution susceptibility testing (CLSI M27-A3). Format: cell-based. The note with it: Cryptococcus gattii.
Description: as §1, §2
A general note: Broth dilution looks for growth in wells or tubes with falling amounts of substance.

In data set [5] the test system is C. albicans 90028. The description is as above. The class given is cell-based, Candida albicans. The note with it: Candida albicans, 90028; read-out: MIC, C. albicans 90028.
Description: as §1, §2

Data set [6] concerns FLC-susceptible and FLC-nonsusceptible/resistant strains of C. neoformans and C. gattii. The data set can be described thus: Broth microdilution, summary over the 18-strain Cryptococcus collection. The note with it: 18 strains of C. neoformans and C. gattii. The class given is cell-based, Cryptococcus neoformans and Cryptococcus gattii. The protocol: as §2, with “The minimum concentration that led to the shortening of hyphae compared to the hyphal growth in DMSO control wells was determined as the minimum effective concentration (MEC) for A. fumigatus (as read for the echinocandins).” left out

The subject of data set [7] is C. neoformans. The data set can be described thus: Broth microdilution susceptibility testing (CLSI M27-A3). The class given is cell-based, Cryptococcus neoformans. The note with it: for MIC: Cryptococcus neoformans.
Description: as §1, §2

In data set [8] the test system is C. neoformans. Also noted: method as in PMID 23740727. To be noted: 46 strains of C. neoformans, global study; cited from earlier work.

The structures appear in SMILES notation. Converted amounts (≈) assume the structure as drawn. Read-outs that look alike come from different tables or passages of the source.

The MIC is the least concentration at which growth counts as inhibited. What is called MIC90 is an inhibitory concentration at the 90% level, which refers to growth in some studies and to a panel of isolates in others. `Nc1ncccc1-c1cc(Cc2ccc(OCc3ccccc3)cc2)no1` [APX2020]: the MIC in data set [1] stood at 0.031 µg/mL; in data set [4] (C. gattii isolate MYA-4093, read-out: MIC) it was 0.125 µg/mL; in data set [4] (C. gattii isolate MYA-4094, read-out: MIC), 0.25 µg/mL; in data set [4] (C. gattii isolate MYA-4560 (first listing, r17), read-out: MIC), 0.063 µg/mL; in data set [4] (C. gattii isolate MYA-4560 (second listing, r21), read-out: MIC), 0.063 µg/mL; in data set [4] (C. gattii isolate MYA-4561, read-out: MIC), 0.125 µg/mL. For the same compound, the MIC in data set [4] (C. gattii isolate MYA-4562, read-out: MIC) is 0.125 µg/mL; in data set [4] (C. gattii isolate MYA-4563, read-out: MIC), 0.125 µg/mL; in data set [4] (C. gattii isolate MYA-4877, read-out: MIC), 0.063 µg/mL; in data set [4] (C. gattii isolate RSA-MW-3615 (FLC resistant), read-out: MIC), 0.031 µg/mL; in data set [4] (Table 1, 50% growth inhibition for FLC, caspofungin and APX compounds, 100% for AMB, read-out: MIC, C. gattii WM276) it was 0.031 µg/mL; in data set [5], 0.016 µg/mL. Moreover, the MIC in data set [6] (read-out: Geometric mean MIC) was 0.085 µg/mL; in data set [7] (72 h, Table 1, 50% growth inhibition for FLC, caspofungin and APX compounds, 100% for AMB, 72 h, read-out: MIC, C. neoformans H99), 0.031 µg/mL; in data set [7] (C. neoformans isolate 14116, read-out: MIC), 0.031 µg/mL; in data set [7] (C. neoformans isolate 76484, read-out: MIC), 0.063 µg/mL; in data set [7] (C. neoformans isolate DUMC 118.00 (FLC resistant), read-out: MIC), 0.063 µg/mL; in data set [7] (C. neoformans isolate DUMC 158.03 (FLC resistant), read-out: MIC), 0.25 µg/mL. The MIC in data set [7] (C. neoformans isolate MYA-4564, read-out: MIC) worked out at 0.063 µg/mL; in data set [7] (C. neoformans isolate MYA-4565, read-out: MIC) it was 0.25 µg/mL; in data set [7] (C. neoformans isolate MYA-4566, read-out: MIC) it was 0.125 µg/mL; in data set [7] (C. neoformans isolate MYA-4567, read-out: MIC), 0.063 µg/mL; in data set [7] (Table 2, C. neoformans isolate H99, read-out: MIC), 0.031 µg/mL. Besides, the “Ratio of AUC with ABT/AUC without ABT, i.p. dosing” value in data set [2] (26 mg/kg prodrug) was determined as 8.3. Moreover, the “Ratio of AUC with ABT/AUC without ABT, p.o. dosing” value in data set [2] (26 mg/kg prodrug) came out at 9.3. Besides, the AUC in data set [2] (intraperitoneal, AUC of analyte after 26 mg/kg prodrug, 100 mg/kg ABT orally 2 h before, read-out: Avg AUC resulting from 26-mg/kg dose, i.p. dosing + ABT) was 35600 ± 28200 ng·h/mL; in data set [2] (ip, AUC of analyte after 26 mg/kg of the corresponding prodrug, male CD-1 mice, no ABT, read-out: Avg AUC resulting from 26-mg/kg dose, i.p. dosing) it was 4310 ± 960 ng·h/mL; in data set [2] (po, AUC of analyte after 26 mg/kg prodrug, 100 mg/kg ABT orally 2 h before, read-out: Avg AUC resulting from 26-mg/kg dose, p.o. dosing + ABT) it was 41900 ± 6410 ng·h/mL; in data set [2] (po, AUC of analyte in plasma after 26 mg/kg of the corresponding prodrug, male CD-1 mice, no ABT, read-out: Avg AUC resulting from 26-mg/kg dose, p.o. dosing), 4490 ± 2320 ng·h/mL. The “fractional inhibitory concentration index (FICI)” value in data set [3] is 0.37. Also, the MIC90 in data set [6] amounted to 0.25 µg/mL. Besides, in data set [7] (from MIC values of Table 1), the “fold improved anti-C. neoformans H99 activity vs APX001A” value came out at 8 fold.
On to `C[C@@H](c1nc(-c2ccc(C#N)cc2)cs1)[C@](O)(Cn1cncn1)c1cc(F)ccc1F` [isavuconazole], for which the MIC90 in data set [8] is 0.06 µg/mL (≈ 0.137 µM).
